Where two headings read alike, the source gives them in different places.
Assays:
[1] = biological target: T1, 17β-HSD1 (Homo sapiens, UniProt P14061); assay: 17β-HSD1 enzymatic assay (E1 to E2, LC-MS/MS); format: biochemical; conditions: for inhibition at 10 µM / inhibition at 100 µM: read-out: 17β-HSD1 Inhibition (% ± SD)
T1 sequence (P14061 1-328): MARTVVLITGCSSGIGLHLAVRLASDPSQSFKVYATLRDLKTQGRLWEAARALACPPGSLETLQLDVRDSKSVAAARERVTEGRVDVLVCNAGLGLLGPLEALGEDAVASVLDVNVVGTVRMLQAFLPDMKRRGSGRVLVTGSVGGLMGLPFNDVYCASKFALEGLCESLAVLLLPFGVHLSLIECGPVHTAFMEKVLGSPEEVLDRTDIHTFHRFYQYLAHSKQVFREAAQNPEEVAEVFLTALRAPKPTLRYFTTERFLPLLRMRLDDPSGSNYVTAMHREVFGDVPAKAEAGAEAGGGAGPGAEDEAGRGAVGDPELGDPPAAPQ
Method: The bacterial homogenate of E. coli overexpressing HSD17B1 was previously prepared as described in references ^S2,S3, and stored in aliquots at -80 °C. Before conducting experiments, aliquots were quickly thawed and diluted twice with 100 mM sodium phosphate buffer (pH 6.5; #14457, #1411007, Kemika), then kept on ice. The enzymatic assay was performed as described in ^S3. Briefly, a 1 mL enzymatic reaction mixture was prepared in 2 mL microcentrifuge tubes with the following components: 10 µL of the test inhibitor dissolved in dimethyl sulfoxide (DMSO; #276855, Sigma Aldrich) or 10 µL of DMSO for control samples, 5 µL of 14 µM substrate estrone (E1; CAS 53-16-7; #E2300-000, Steraloids), 10 µL of 10 mM NADPH (#AE14, Carl Roth) prepared in 100 mM sodium phosphate buffer, and 965 µL of 100 mM sodium phosphate buffer (pH 6.5). The reaction mixture was mixed thoroughly before adding 10 µL of bacterial homogenate. Immediately after addition, the tubes were transferred to an Eppendorf thermoshaker (#5382000031, Eppendorf) and incubated at 37 °C for 10 minutes. To stop the reaction, 60 µL of 1.26 M ascorbic acid (#A92902, Sigma Aldrich) in methanol (#34966, Honeywell/Riedel-de Haen) /acetic acid (#1.00063, Merck) (99:1, v/v) was added. The samples were then immediately processed using solid-phase extraction (SPE). The assay was repeated in three independent experiments, with each experiment performed in technical duplicate.
The preparation of samples for liquid chromatography-tandem mass spectrometry (LC-MS/MS) involved SPE. Stock solutions of E1 and 17β-estradiol (E2; CAS: 50-28-2; #142406, Steraloids) were prepared gravimetrically and dissolved in methanol (#34966, Honeywell/Riedel-de Haen). A working calibrator solution containing both steroids was then prepared by mixing appropriate volumes of the stock solutions in methanol to achieve a final concentration of 1 µg/mL for each steroid. Eight-point calibration curves (excluding zero and blank) were prepared in 100 mM sodium phosphate buffer (pH 6.5). For each 1 mL reaction mixture or calibrator, 10 µL of 100 ng/mL internal standard solution containing [2,3,4-13C3]-17β-estradiol (#719552, Sigma Aldrich) was added. Samples were mixed thoroughly and incubated at room temperature for 15 minutes.
SPE was performed using Strata X 33 µm polymeric reversed-phase columns (30 mg/mL tubes; #8B-S100-TAK, Phenomenex). The procedure involved the following steps: column conditioning with 1 mL of methanol, column equilibration with 1 mL of H₂O (#1.15333, Supelco), sample loading (1 mL sample or calibrator), column washing with 1 mL of H₂O, column drying under high vacuum for 10 minutes, and finally elution with 1 mL of methanol directly into HPLC glass vials (#702713, Macherey-Nagel GmbH/Co). The eluted samples were stored at -20 °C until LC-MS/MS analysis.

[2] = tested on: MCF-7; assay: MTT antiproliferative assay, MCF-7; format: cell-based, human; conditions: Homo sapiens; for inhibition at 10 µM: MCF7, 10 µM; for inhibition at 10 µM / inhibition at 30 µM: 72 h; for inhibition at 30 µM: MCF7, 30 µM; for IC50: MCF7, 72 h, read-out: calculated IC50 MCF-7
Method: (§1) We evaluated the cytotoxic activity of the newly synthesised arylated compounds 13–17 by the MTT assay[37] on a panel of human adherent cancer cell lines. The panel included breast (MCF-7 and MDA MB-231) and cervical (HeLa, SiHa and C33A) cancer cell lines differing in receptorial or HPV status. Tumour selectivity was determined on the NIH/3T3 mouse fibroblast cell line.
(§2) Briefly, the panels of breast and cervical cancerous cell lines, differing by their receptorial and HPV status were used, precisely MCF-7 (ER, PR and HER2 positive) and MDA-MB-231 (TNBC) breast carcinoma and HeLa (HPV18+), SiHa (HPV16+), C33A (HPV-) cervical carcinoma cells. Non-cancerous NIH/3T3 mouse fibroblast cell line was used for selectivity study. MCF-7, MDA-MB-231, Hela and NIH/3T3 cell lines were purchased from ECACC (European Collection of Cell Cultures, Salisbury, UK), while SiHa and C33A from ATCC (American Tissue Culture Collection, LGC Standards GmbH, Wesel, Germany). Cells were maintained in Eagle's Minimum Essential Medium (EMEM, Capricorn Scientific GmbH, Ebsdorfergrund, Germany) supplemented with 10% heat-inactivated fetal bovine serum (FBS), 1% non-essential amino acids (NEAA), and 1% antibiotic-antimycotic mixture (penicillin–streptomycin). The cells were maintained at 37 °C in a humidified atmosphere containing 5% CO2.
(§3) For measurements cells were seeded for 96-well plates at a density of 5 000/well, except for C33A, which was seeded in 10 000cells for each well. After overnight standing cells were treated with 10 and 30 µM solutions for screening and increasing concentrations (0.1-30.0 µM) of the test compounds were used for concentration-response curves. After incubation for 72 hours under cell culturing condition 5 mg/ml MTT (3-(4,5-[…])-2,5-diphenyl-2H-tetrazolium bromide) solution was added for another 4 h. The precipitated formazan crystals were solubilized in DMSO and the absorbance was measured at 545 nm with a microplate reader (BMG Labtech, Ortenberg, Germany). Wells with untreated cells were utilized as control, and inhibition % were calculated by GraphPad Prism v 9.0 software (GraphPad Software, San Diego, CA, USA). If the growth-inhibition exceeded 70% at 30 µM concentration during the screening concentration-response curves were fitted and IC50 values were calculated by GraphPad Prism v 9.0. The experiments were performed with five parallel wells for each experimental condition and repeated at least twice.

[3] = tested on: SiHa; assay: MTT antiproliferative assay, SiHa; format: cell-based, human; conditions: Homo sapiens, SiHa, 72 h
Method: as §1, §2, §3

[4] = tested on: MDA-MB-231; assay: MTT antiproliferative assay, MDA-MB-231; format: cell-based, human; conditions: Homo sapiens; for inhibition at 10 µM: MDA-MB-231, 10 µM; for inhibition at 10 µM / inhibition at 30 µM: 72 h; for inhibition at 30 µM: MDA-MB-231, 30 µM
Method: as §1, §2, §3

[5] = tested on: HeLa; assay: MTT antiproliferative assay, HeLa; format: cell-based, human; conditions: Homo sapiens, HeLa, 72 h; for IC50: read-out: calculated IC50 HeLa
Method: as §1, §2, §3

[6] = tested on: C33A; assay: MTT antiproliferative assay, C33A; format: cell-based, human; conditions: Homo sapiens, C-33-A, 72 h
Method: as §1, §2, §3

[7] = tested on: NIH/3T3 mouse fibroblast cell line; assay: MTT assay, tumour selectivity on non-cancerous fibroblasts; format: cell-based; conditions: Mus musculus; for inhibition at 10 µM: NIH3T3, 10 µM; for inhibition at 10 µM / inhibition at 30 µM: 72 h; for inhibition at 30 µM: NIH3T3, 30 µM
Method: as §1, §2, §3

[8] = tested on: human adherent cancer cell lines (HeLa, SiHa, C33A, MCF-7 and MDA-MB-231); assay: MTT assay, whole panel of cell lines; format: cell-based; conditions: Homo sapiens; MTT, 72 h; range across cell lines; read-out: IC50 range over the investigated cell lines
Method: as §1, §2, §3

| Structure (SMILES) | inhibition at 10 µM ([1]; 10 µM test concentration) | inhibition at 100 µM ([1]; 100 µM test concentration) | inhibition at 10 µM [2] | inhibition at 30 µM [2] | inhibition at 10 µM [3] | inhibition at 30 µM [3] | inhibition at 10 µM [4] | inhibition at 30 µM [4] | inhibition at 10 µM [5] | inhibition at 30 µM [5] | inhibition at 10 µM [6] | inhibition at 30 µM [6] | inhibition at 10 µM [7] | inhibition at 30 µM [7] | also measured |
| --- | --- | --- | --- | --- | --- | --- | --- | --- | --- | --- | --- | --- | --- | --- | --- |
| C[C@@]12CC[C@@H]3c4cc(-c5ccccc5)c(O)cc4CC[C@H]3[C@@H]1CCC2=O [2-Ph] | 54 ± 7.8% | 59.4 ± 7.8% | – | – | – | – | – | – | – | – | – | – | – | – | – |
| C[C@@]12CC[C@@H]3c4ccc(O)c(-c5ccccc5)c4CC[C@H]3[C@@H]1CCC2=O [4-Ph, reference compound] | 41.4 ± 0.2% | 52.1 ± 17.4% | – | – | – | – | – | – | – | – | – | – | – | – | – |
| CN(C)C(=O)Oc1cc2c(c(-c3ccccc3)c1)[C@H]1CC[C@@]3(C)C(=O)CC[C@H]3[C@@H]1CC2 [13a, 3-(N,N-Dimethylcarbamoyloxy)-1-phenyl-13α-estra-1,3,5(10)-triene-17-one] | – | – | 22.5% | 52.8% | 13.7% | 41% | < 10% | 41% | 30.9% | 59.9% | < 10% | 27.2% | 13.5% | 22.5% | 17β-HSD1 Inhibition (% ± SD) ([1]; 10 µM test concentration): No inhibition; inhibition at 100 µM [1]: 33.6 ± 14.9% |
| CN(C)C(=O)Oc1cc2c(c(-c3ccc(Br)cc3)c1)[C@H]1CC[C@@]3(C)C(=O)CC[C@H]3[C@@H]1CC2 [13b, 1-(4-bromophenyl)-3-(N,N-dimethylcarbamoyloxy)-13α-estra-1,3,5(10)-triene-17-one] | – | – | 37.5% | 68.7% | 38.6% | 40% | < 10% | 13.9% | 53.6% | 59.3% | < 10% | 57.8% | < 10% | 46.3% | inhibition at 10 µM [1]: 14.5 ± 8.4%; inhibition at 100 µM [1]: 42.2 ± 18.6% |
| CN(C)C(=O)Oc1cc2c(c(-c3ccc(C(C)(C)C)cc3)c1)[C@H]1CC[C@@]3(C)C(=O)CC[C@H]3[C@@H]1CC2 [13c, 3-(N,N-dimethylcarbamoyloxy)-1-(4-tert-butylphenyl)-13α-estra-1,3,5(10)-triene-17-one] | – | – | 58.4% | 102% | 54.8% | 101% | 43.8% | 92.9% | 53.8% | 98.6% | 41.1% | 93.6% | 47.3% | 97.7% | IC50 [2]: 5.7 µM; IC50 ([3]; read-out: calculated IC50 SiHa): 4.74 µM; IC50 ([4]; MDA-MB-231, 72 h, read-out: calculated IC50 MDA-MB-231): 9.09 µM; IC50 [8]: 4.74 to 10.1 µM; IC50 [5]: 7.9 µM; 17β-HSD1 Inhibition (% ± SD) ([1]; 10 µM test concentration): No inhibition; 17β-HSD1 Inhibition (% ± SD) ([1]; 100 µM test concentration): No inhibition; IC50 ([6]; read-out: calculated IC50 C33A): 10.1 µM; IC50 ([7]; NIH3T3, 72 h, read-out: calculated IC50 NIH/3T3): 8.75 µM |
| C[C@@]12CC[C@@H]3c4c(cc(O)cc4-c4ccccc4)CC[C@H]3[C@@H]1CCC2=O [14a, 3-hydroxy-1-phenyl-13α-estra-1,3,5(10)-triene-17-one] | 36.1 ± 10.2% | 73.3 ± 7.5% | 13.1% | 15.4% | < 10% | < 10% | < 10% | < 10% | 16.1% | 43% | < 10% | 12.7% | 13.5% | 22.5% | – |
| C[C@@]12CC[C@@H]3c4c(cc(O)cc4-c4ccc(Br)cc4)CC[C@H]3[C@@H]1CCC2=O [14b, 1-(4-bromophenyl)-3-hydroxy-13α-estra-1,3,5(10)-triene-17-one] | 35.9 ± 8% | 76.6 ± 5.1% | 35.1% | 81.5% | < 10% | 59.7% | < 10% | 46.8% | 26.5% | 71.6% | 28.7% | 57% | 16.1% | 41.7% | IC50 [2]: 13.5 µM; IC50 [5]: 17.5 µM |
| C[C@]12CC[C@H]3C(=CCc4cc(O)ccc43)[C@@H]1CCC2=O [Equilin, reference compound] | 85.9 ± 1.6% | – | – | – | – | – | – | – | – | – | – | – | – | – | – |

From publication PMC12278462, “Site-selective arylations of nature-inspired flavonoids or steroidal phenols via C—H or O—H activation” (Journal of Enzyme Inhibition and Medicinal Chemistry, 2025)
